Biological target: T1, human IL-17AA (Homo sapiens, UniProt Q16552)
T1 construct: host or cells: HEK (human embryonic kidney) cells
T1 sequence (Q16552 24-155): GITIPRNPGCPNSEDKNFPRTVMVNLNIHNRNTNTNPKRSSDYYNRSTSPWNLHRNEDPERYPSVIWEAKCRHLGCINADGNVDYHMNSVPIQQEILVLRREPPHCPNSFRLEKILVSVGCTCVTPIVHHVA
Test: IL-8 release assay in human epithelial keratinocytes adult (HEKa)
Assay type: cell-based
Conditions: HEKa cells, 3 ng/mL HEK-human IL-17AA + 10 ng/mL human TNFalpha; read-out: Rel EC50 IL-8 release assay
Summary of the method: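 Adult human epidermal keratinocytes stimulated 68-72 h at 37 °C with 3 ng/mL HEK-derived human IL-17AA plus 10 ng/mL TNF-alpha (final) in the presence of compound; TNF-alpha alone defines 100% inhibition. Secreted IL-8 measured by HTRF as percent of controls; relative IC50/Emax from four-parameter fit (r^2>0.9), cytotoxicity by PrestoBlue.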

Structure (SMILES)	EC50 [nM]
Cn1cncc1-c1ccc(NC(=O)C(NC(=O)c2ccnn2C)C(c2cccc(F)c2)c2cccc(F)c2)cc1 (single isomer, unassigned) [Example 374A, N-(1,1-Bis(3-Fluorophenyl)-3-((4-(1-methyl-1H-imidazol-5-yl)phenyl)amino)-3-oxopropan-2-yl)-1-methyl-1H-pyrazole-5-carboxamide]	> 1000
Cn1cncc1-c1ccc(NC(=O)C(NC(=O)c2ccnn2C)C(c2cccc(F)c2)c2cccc(F)c2)cc1 (single isomer, unassigned) [Example 374B, N-(1,1-Bis(3-Fluorophenyl)-3-((4-(1-methyl-1H-imidazol-5-yl)phenyl)amino)-3-oxopropan-2-yl)-1-methyl-1H-pyrazole-5-carboxamide]	> 1000
CC(C)n1nccc1C(=O)NC(C(=O)Nc1ccc(-c2c(C3CC3)n[nH]c2C2CC2)cc1)C(C1CC1)C1CC1 (single isomer, unassigned) [Example 384, N-[1-(dicyclopropylmethyl)-2-[4-(3,5-dicyclopropyl-1H-pyrazol-4-yl)anilino]-2-oxo-ethyl]-2-isopropyl-pyrazole-3-carboxamide]	100 to 1000
CC(C)n1nccc1C(=O)NC(C(=O)Nc1ccc(-c2c(C3CC3)n[nH]c2C2CC2)cc1)C(C1CC1)C1CC1 (single isomer, unassigned) [Example 385, N-[1-(dicyclopropylmethyl)-2-[4-(3,5-dicyclopropyl-1H-pyrazol-4-yl)anilino]-2-oxo-ethyl]-2-isopropyl-pyrazole-3-carboxamide]	< 100
Cc1n[nH]c(C)c1-c1ccc(NC(=O)[C@@H](NC(=O)N2CCCCC2CCCO)C2CCCCC2)cc1 (single isomer, unassigned) [Example 460]	100 to 1000
Cc1n[nH]c(C)c1-c1ccc(NC(=O)[C@@H](NC(=O)N2CCCCC2CCCO)C2CCCCC2)cc1 (single isomer, unassigned) [Example 461]	> 1000
Cc1n[nH]c(C)c1-c1ccc(NC(=O)[C@@H](NC(=O)N2CCCC2C(C)(C)O)C2CCCCC2)cc1 (single isomer, unassigned) [Example 464]	> 1000
Cc1n[nH]c(C)c1-c1ccc(NC(=O)[C@@H](NC(=O)N2CCCC2C(C)(C)O)C2CCCCC2)cc1 (single isomer, unassigned) [Example 465]	> 1000
Cc1n[nH]c(C)c1-c1ccc(NC(=O)[C@@H](NC(=O)N2CCCC2CCO)C2CCCCC2)cc1 (single isomer, unassigned) [Example 466]	> 1000
Cc1n[nH]c(C)c1-c1ccc(NC(=O)[C@@H](NC(=O)N2CCCC2CCO)C2CCCCC2)cc1 (single isomer, unassigned) [Example 467]	> 1000
Cc1n[nH]c(C)c1-c1ccc(NC(=O)[C@@H](NC(=O)N2CCCCC2CCO)C2CCCCC2)cc1 (single isomer, unassigned) [Example 470]	> 1000
Cc1n[nH]c(C)c1-c1ccc(NC(=O)[C@@H](NC(=O)N2CCCCC2CCO)C2CCCCC2)cc1 (single isomer, unassigned) [Example 471]	> 1000
Cc1n[nH]c(C)c1-c1ccc(NC(=O)[C@@H](NC(=O)N2CCCC2CO)C2CCCCC2)cc1 (single isomer, unassigned) [Example 473]	> 1000
Cc1n[nH]c(C)c1-c1ccc(NC(=O)[C@@H](NC(=O)N2CCCC2CO)C2CCCCC2)cc1 (single isomer, unassigned) [Example 474]	> 1000
Cc1n[nH]c(C)c1-c1ccc(NC(=O)[C@@H](NC(=O)c2ccnn2C)C2CCCCC2)cc1 [Example 1, N-[(1S)-1-cyclohexyl-2-[4-(3,5-dimethyl-1H-pyrazol-4-yl)anilino]-2-oxo-ethyl]-2-methyl-pyrazole-3-carboxamide]	100 to 1000
Cc1n[nH]c(C)c1-c1ccc(NC(=O)[C@@H](NC(=O)c2ccnn2C)C(c2ccccc2)c2ccccc2)cc1 [Example 2, N-[(1S)-1-benzhydryl-2-[4-(3,5-dimethyl-1H-pyrazol-4-yl)anilino]-2-oxo-ethyl]-2-methyl-pyrazole-3-carboxamide]	100 to 1000
Cc1n[nH]c(C)c1-c1ccc(NC(=O)[C@@H](NC(=O)c2ccnn2C)C2CCCCCC2)cc1 [Example 3, N-[(1S)-1-cycloheptyl-2-[4-(3,5-dimethyl-1H-pyrazol-4-yl)anilino]-2-oxo-ethyl]-2-methyl-pyrazole-3-carboxamide]	< 100
Cc1n[nH]c(C)c1-c1ccc(NC(=O)[C@@H](NC(=O)c2ccnn2C)[C@@H]2CCc3ccc(Br)cc32)cc1 [Example 4, N-[(1S)-1-[(1R)-6-bromoindan-1-yl]-2[4-(3,5-dimethyl-1H-pyrazol-4-yl)anilino]-2-oxo-ethyl]-2-methyl-pyrazole-3-carboxamide]	100 to 1000
Cc1n[nH]c(C)c1-c1ccc(NC(=O)[C@@H](NC(=O)c2ccnn2C)[C@H]2CCc3ccc(Br)cc32)cc1 [Example 5, N-[(1S)-1-[(1S)-6-bromoindan-1-yl]-2[4-(3,5-dimethyl-1H-pyrazol-4-yl)anilino]-2-oxo-ethyl]-2-methyl-pyrazole-3-carboxamide]	< 100
Cc1n[nH]c(C)c1-c1ccc(NC(=O)[C@@H](NC(=O)c2ccnn2C)[C@H]2CCCc3ccc(Br)cc32)cc1 [Example 6, N-[(1S)-1-[(1S)-7-bromotetralin-1-yl]-2-[4 (3,5-dimethyl-1H-pyrazol-4-yl)anilino]-2-oxo-ethyl]-2-methyl-pyrazole-3-carboxamide]	< 100
Cc1n[nH]c(C)c1-c1ccc(NC(=O)[C@@H](NC(=O)c2ccnn2C)[C@H]2CCCCC(F)(F)C2)cc1 [Example 7, N-[(1S)-1-[(1S)-3,3-difluorocycloheptyl]-2-[4-(3,5-dimethyl-1H-pyrazol-4-yl)anilino]-2-oxo-ethyl]-2-methyl-pyrazole-3-carboxamide]	100 to 1000
Cc1n[nH]c(C)c1-c1ccc(NC(=O)[C@@H](NC(=O)c2ccnn2C(C)(C)C)C2CCCCC2)cc1 [Example 8, 2-tert-butyl-N-[(1S)-1-cyclohexyl-2-[4-(3,5-dimethyl-1H-pyrazol-4-yl)anilino]-2-oxo-ethyl]pyrazole-3-carboxamide]	> 1000
CCn1nccc1C(=O)N[C@H](C(=O)Nc1ccc(-c2c(C)n[nH]c2C)cc1)C1CCCCC1 [Example 9, N-[(1S)-1-cyclohexyl-2-[4-(3,5-dimethyl-1H-pyrazol-4-yl)anilino]-2-oxo-ethyl]-2-ethyl-pyrazole-3-carboxamide]	< 100
Cc1n[nH]c(C)c1-c1ccc(NC(=O)[C@@H](NC(=O)c2ccnn2C(C)C)C2CCCCC2)cc1 [Example 10, N-[(1S)-1-cyclohexyl-2-[4-(3,5-dimethyl-1H-pyrazol-4-yl)anilino]-2-oxo-ethyl]-2-isopropyl-pyrazole-3-carboxamide]	< 100
Cc1n[nH]c(C)c1-c1ccc(NC(=O)[C@@H](NC(=O)c2ccnn2C)C2CCC(F)(F)CC2)cc1 [Example 11, N-[(1S)-1-(4,4-difluorocyclohexyl)-2-[4-(3,5-dimethyl-1H-pyrazol-4-yl)anilino]-2-oxo-ethyl]-2-methyl-pyrazole-3-carboxamide]	100 to 1000
Cc1n[nH]c(C)c1-c1ccc(NC(=O)[C@@H](NC(=O)c2ccnn2C(C)C)C2CCC(F)(F)CC2)cc1 [Example 12, N-[(1S)-1-(4,4-difluorocyclohexyl)-2-[4-(3,5-dimethyl-1H-pyrazol-4-yl)anilino]-2-oxo-ethyl]-2-isopropyl-pyrazole-3-carboxamide]	< 100

— US11377425B1, “Small molecule modulators of IL-17” (LEO Pharma A/S, priority 2018, dated 2022)
